Conditions: 101.33 kPa, Liquid

CCC1COC(=O)O1 (configuration not stated) [1,2-butylene carbonate]
Conditions | mass density [kg/m3]
283 K | 1155.2
293.1 K | 1146.6
295.1 K | 1144.9
297.1 K | 1143.3
299.1 K | 1141.7
301.1 K | 1140.1
303.1 K | 1138.6
